A short description of this data set: Antibiotic aerosol delivery with nebulizer at distal Y position, three nebulizers. Details: unit not given here. Conditions: T-BIRD, continuous. The text has this:
The inhaled mass filter 1040 allows one to do accurate measurements of what delivery amounts are actually reaching the patient 10.
In a second experiment, the arrangements of FIGS. 15A and 15B were used with a single commercially available ventilator (the T-Bird ventilator) together with three different commercially available nebulizers. The nebulizer actuation was examined in the “continuous” mode. The humidity feature for these ventilators was examined by performing the test both when the feature is active and when it is off. An expiratory line filter was also used (not shown). Clearly, the Portex nebulizer performed poorly under these conditions.

Where [1] appears, read: AEROGEN nebulizer, humidity OFF.
Setting [2] is: AEROTECH nebulizer, humidity OFF.
The mark [3] stands for this setting: AEROTECH nebulizer, humidity ON.

Consider gentamicin, for which the MMAD under setting [1] was 1.1; the MMAD (AEROGEN nebulizer, humidity ON) amounted to 1.2; the MMAD under setting [2] was found to be 0.9; the MMAD under setting [3] is recorded as 1.3; the MMAD (PORTEX nebulizer, humidity ON) is 0.9.

Take `CN[C@H](CC(C)C)C(=O)N[C@H]1C(=O)N[C@@H](CC(N)=O)C(=O)N[C@H]2C(=O)N[C@H]3C(=O)N[C@H](C(=O)N[C@H](C(=O)O)c4cc(O)cc(O)c4-c4cc3ccc4O)[C@H](O)c3ccc(c(Cl)c3)Oc3cc2cc(c3O[C@@H]2O[C@H](CO)[C@@H](O)[C@H](O)[C@H]2O[C@H]2C[C@](C)(N)[C@H](O)[C@H](C)O2)Oc2ccc(cc2Cl)[C@H]1O` [VANCOMYCIN, vancomycin]: the MMAD is, setting by setting: under setting [1], 2; (AEROGEN nebulizer, humidity ON) 2; under setting [2], 1.7; under setting [3], 1.1; (PORTEX nebulizer, humidity ON) 1.1.
